In patent publication US12065445B2, “CDK2 inhibitors and methods of using the same” (Cedilla Therapeutics, Inc., priority 2021, dated 2024):

Assays:
[1] = biological target: T1, CDK2/Cyclin E1 (Homo sapiens, UniProt P24941); experiment: CDK2/Cyclin E1 Caliper Assay (LabChip EZ Reader mobility shift); assay type: biochemical; conditions: read-out: Caliper Assay (CDK2/CCNE1): IC50
T1 construct: purchased Eurofins 14-475
Method: Inhibition of CDK2/Cyclin E1 activity in the presence of compounds of the present disclosure was evaluated using a Caliper LabChip® EZ Reader mobility shift assay. In the assay, CDK2/Cyclin E1 (Eurofins, 14-475) catalyzed the phosphorylation of a fluorescently tagged peptide 5-FAM-QSPKKG-CONH2 (PerkinElmer, FL Peptide 18) which induced a difference in capillary electrophoresis mobility. The peptide substrate and product were measured, and the conversion ratio was used to determine the inhibition (as % activity and IC50 values) of CDK2/Cyclin E1. Reactions contained 50 mM HEPES pH 7.5, 10 mM MgCl2, 1 mM EDTA, 2 mM DTT, 0.01% Brij35, 0.5 mg/mL BSA, 0.1% DMSO, 2.5 nM CDK2/Cyclin E1, 100 μM ATP, and 1.5 μM fluorescent peptide substrate.
Dose titrations of inhibitors in 100% DMSO were combined with 3.25 nM CDK2/Cyclin E1 and 130 μM of ATP in reaction buffer. The mixtures were incubated for 30 minutes before the addition of fluorescent peptide substrate to initiate the kinase reaction. The final conditions were 2.5 nM CDK2/Cyclin E1, 100 μM ATP, and 1.5 μM fluorescent peptide. The reactions were stopped after 100 minutes with the addition of EDTA (400 mM final EDTA concentration). The stopped reactions were analyzed on a Caliper LabChip® EZ Reader II. The conversion ratios were normalized to yield % activity, plotted against compound concentration, and fit to a four-parameter equation to determine the IC50 for each compound.

[2] = test system: Kuramochi cells; experiment: BrdU Cell Proliferation Assay; assay type: cell-based; conditions: read-out: BrdU - KURAMOCHI.1: IC50
Procedure, shortened: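 Signal is 450 nm absorbance from a peroxidase anti-BrdU ELISA after a 1-hour BrdU label, background-subtracted and normalized to DMSO-treated wells. Kuramochi cells (2,000 per well) had been exposed to compound for 4 days. Dosing used a 10-point dose response in 3-fold steps.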

[3] = test system: Kuramochi cells labeled with mApple-H2B; experiment: IncuCyte Cell Proliferation Assay; assay type: cell-based
Procedure, shortened: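 GI50 came from dose-response fits of cell-count fold change between 0 and 72 h, normalized to DMSO controls. Counts were fluorescent nuclei from live-cell images over a 10-point, ½ log series starting at 20 μM.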

| SMILES | IC50 [1] [nM] | IC50 [2] [nM] | IC50 ([3]; 72 h) [nM] | IC50 ([3]; 72 hours) [nM] |
| --- | --- | --- | --- | --- |
| C[C@@H](OCC1CCCCC1)[C@H](NC(=O)[C@@H]1CN(C(=O)c2cncs2)CC12CN(C(=O)[C@H]1CC1(C)C)C2)C(=O)N1CCC(F)(F)CC1 [I-192A] | ≤ 10 | ≤ 500 | ≤ 500 |  |
| C[C@@H](OCC1CCC(F)(F)CC1)[C@H](NC(=O)C1CN(C(=O)c2cnn(Cc3ccc(F)cc3)c2)CC12CN(C(=O)C1(C(F)(F)F)CC1)C2)C(=O)N1CCC(F)(F)CC1 (single isomer, unassigned) [I-190B] | 100 to 1000 | 500 to 5000 |  | 5000 to 20000 |
| C[C@@H]1C[C@H](C)CN(C(=O)[C@@H](NC(=O)[C@@H]2CN(C(=O)c3cn[nH]c3)CC23CN(C(=O)[C@H]2CC2(C)C)C3)[C@@H](C)OCC2CCCCC2)C1 [I-173A] | ≤ 10 | ≤ 500 | 500 to 5000 |  |

Continued, in another order:

| IC50 [1] [nM] | SMILES | IC50 [2] [nM] | IC50 ([3]; 72 h) [nM] | IC50 ([3]; 72 hours) [nM] |
| --- | --- | --- | --- | --- |
| 10 to 100 | C[C@@H](OCc1ccccc1)[C@H](NC(=O)C1CN(C(=O)c2cnn(Cc3ccccc3)c2)CC12CN(C(=O)C1CC1(C)C)C2)C(=O)NCCCCCNC(=O)OC(C)(C)C (some centres unmarked) [I-52] | 500 to 5000 | 500 to 5000 |  |
| 10 to 100 | COCC1CCCN(C(=O)[C@@H](NC(=O)[C@H]2CN(C(=O)c3cnn(Cc4ccccc4)c3)CC23CN(C(=O)[C@H]2CC2(C)C)C3)[C@@H](C)OCC2CCCCC2)C1 (some centres unmarked) [I-111] | ≤ 500 | 500 to 5000 |  |
| ≤ 10 | C[C@@H](OCC1CCC(F)(F)CC1)[C@H](NC(=O)[C@@H]1CN(C(=O)c2cncs2)CC12CN(C(=O)[C@H]1CC1(C)C)C2)C(=O)N1CC2CCC(C1)O2 [I-469] | 500 to 5000 | ≤ 500 |  |
| ≤ 10 | CC(=O)N[C@H]1CCCN(C(=O)[C@@H](NC(=O)[C@@H]2CN(C(=O)c3cncs3)CC23CN(C(=O)[C@H]2CC2(C)C)C3)[C@@H](C)OCC2CCCCC2)C1 [I-330] | 5000 to 10000 | 500 to 5000 |  |
| 100 to 1000 | C[C@@H](OCC1CCOCC1)[C@@H](COC(F)F)NC(=O)[C@@H]1CN(C(=O)c2cncs2)CC12CN(C(=O)[C@H]1CC1(C)C)C2 [I-441] |  | > 20000 |  |
| 1000 to 10000 | CNC(=O)[C@@H](NC(=O)[C@@H]1CN(C(=O)c2cncs2)CC12CN(C(=O)[C@H]1CC1(C)C)C2)c1nnc(C2CCCCC2)o1 [I-429] | > 10000 | > 20000 |  |
